Data set [1] can be described thus: in vivo. Conditions: male, C57BL/6 J, mouse, iv, 1 mg/kg.
Protocol: (§1) The validity of the developed bioanalytical LC-MS/MS method was assessed by quantitative determination of C5aR1 antagonist levels in mice plasma and tissue following i.v. drug administration. All experimental procedures and animal care were performed following approval from the University of Queensland Animal Care and Use Committee and conducted in accordance with the National Health and Medical Research Council of Australia policies and guidelines for the care and use of animals for scientific purposes. C57BL/6 J mice (males, 10–12 weeks old) were purchased from Animal Resources Centre, Western Australia. An i.v. dose of 1 mg/kg was selected based upon previous pharmacokinetic studies in rat and in vivo efficacy studies in mice[6],[28]. After overnight fasting, mice (n = 4 per time point) were anaesthetized with zolazapam (50 mg/kg) and xylazine (12 mg/kg) via i.p. injection. […] Blood samples were collected via cardiac puncture at 2.5 min, 5 min, 10 min, 15 min, 30 min, 45 min, 60 min and 90 minutes in tubes containing EDTA followed by plasma separation by centrifugation at 1500 × g at 4 °C. Plasma samples were stored at −80 °C for further processing and analysis. Mice were immediately perfused transcardially with sterile saline to remove circulating drug from the blood vasculature. Whole brain and spinal cord samples were obtained and homogenized in an equal weight-volume of milliQ water. […] Pharmacokinetics data analysis was performed using Pharsight WINNONLIN software (version 6.4) by a non-compartmental analysis method to obtain various pharmacokinetic parameters.
Data set [2] is described as follows: Serum stability, incubation at 37 °C. Conditions: mouse serum, 1 µg/ml, up to 60 min.
Protocol: (§2) Plasma and serum stability was determined by incubation experiments. For plasma stability, whole blood was collected via cardiac puncture from anaesthetized wild-type mice in tubes containing EDTA, and plasma was extracted by centrifuging blood for 15 min at 1500 × g at 4 °C. […] Samples (n = 4) were quenched at regular intervals of 5 min, 10 min, 15 min, 30 min and 60 min by stopping the reaction with the addition of ice cold acetonitrile, and processed as described earlier for quantitative determination of unchanged analytes. For serum stability, whole blood was collected via cardiac puncture from anaesthetized wild-type mice in tubes and kept on ice until completely clotted. Serum was collected by centrifuging clotted blood for 15 min at 1500 × g at 4 °C. […] Briefly, on the day of analysis, samples were deproteinized with 1:3 ice cold acetonitrile and spiked with 10 µl of 100 ng/ml internal standard. Samples were vortexed, centrifuged and supernatants were dried by vacuum concentration at room temperature. Dried samples were reconstituted in 50 µl of 75% methanol and analysed using LC-MS/MS. The stability the C5aR1 antagonists were expressed as a percentage of the concentration detected at different time points in comparison to the concentration detected immediately following addition of antagonists i.e. at t = 0 min.
The nature of data set [3]: Plasma stability, incubation at 37 °C. The note with it: mouse plasma, 1 µg/ml, up to 60 min.
Protocol: as §2
The nature of data set [4]: Gastric environment stability (gastric lavage fluid and gastric homogenate). The note with it: 1 µg/ml, 37 °C, up to 60 min.
Protocol: The gastric stability of analytes was performed using gastric contents of wild-type mice with free access to food and water overnight (i.e. modelling physiological conditions). […] The stomach was clamped and removed from the abdominal cavity, and the stomach cavity was repeatedly lavaged with sterile saline (5 ml in total) and the lavage fluid collected and combined. The stomach tissue was then homogenized with an equal volume of milliQ water. Lavage fluid and stomach homogenate were centrifuged (400 × g, 30 min at 4 °C) and the supernatant was collected and stored on ice. A solution of C5aR1 antagonist (1 µg/ml) were incubated at 37 °C for up to 60 minutes in gastric lavage fluid and gastric homogenate supernatant, and samples (n = 4) were quenched at regular time intervals by the addition of ice-cold acetonitrile. Samples were processed as described earlier for the quantitative determination of unchanged analytes along with an internal standard.
Data set [5] is described as follows: Intestinal environment stability (intestinal washing and intestinal homogenate). Conditions: 1 µg/ml, 37 °C, up to 60 min.
Protocol: Likewise gastric environment stability, intestinal stability of analytes was performed using intestinal contents of wild-type mice with free access to food and water overnight. Mice were anaesthetized and euthanized by cervical dislocation. The small intestine was clamped and removed from the abdominal cavity. The intestine was repeatedly lavaged with sterile saline (5 ml in total) and intestinal washings were collected and combined. The intestine was also homogenized with an equal volume of milliQ water. Intestinal lavage and intestinal homogenates were centrifuged (400 × g, 30 min at 4 °C) and the supernatant was collected and stored on ice. A solution of C5aR1 antagonist (1 µg/ml) was incubated at 37 °C for up to 60 minutes in intestinal lavage and intestinal homogenate supernatants, and samples (n = 4) were collected at regular time intervals by the addition of ice-cold acetonitrile. Samples were processed as described earlier for quantitative determination of unchanged analytes along with internal standard.
A short description of data set [6]: Intravenous pharmacokinetics in mice (plasma, brain, spinal cord; LC-MS/MS, non-compartmental analysis). The note with it: for MRT inf: MRT 0-inf_obs.
Protocol: as §1
The mark [7] stands for this setting: brain, single i.v. 1 mg/kg, mice.
The mark [8] stands for this setting: male, C57BL/6 J, mouse, brain, iv, 1 mg/kg, single i.v. 1 mg/kg, mice.
[9] abbreviates: male, C57BL/6 J, mouse, plasma, iv, 1 mg/kg.
Setting [10] is: male, C57BL/6 J, mouse, plasma, iv, 1 mg/kg, single i.v. 1 mg/kg, mice.
The mark [11] stands for this setting: male, C57BL/6 J, mouse, spinal cord, iv, 1 mg/kg, single i.v. 1 mg/kg, mice.
The mark [12] stands for this setting: spinal cord, single i.v. 1 mg/kg, mice.

“And” between values parts separate entries of the source, which are not always exact repeats. Identical values can stand only once. Bridge positions count the residues as written; N and C are the ends. Square brackets hold non-standard residues; d marks the D form. Peptide text beside a SMILES is read from it. * marks the point of attachment. Hydrocinnamoyl = O=C(CCc1ccccc1)*; dCha = N[C@H](CC1CCCCC1)C(=O)O; Orn = NCCC[C@H](N)C(=O)O

By AUC(0-inf) is commonly meant total exposure, with the tail of the curve extrapolated. The term clearance denotes the volume of plasma or blood freed of the substance per unit of time. The low end stands for inefficient removal, the high end for efficient removal. As usually defined, the Cmax is the peak of the concentration-time curve. The Vd is a proportionality between amount in the body and measured concentration, not a real space. In data set [1], `CC(=O)N[C@@H](Cc1ccccc1)C(=O)N[C@H]1CCCNC(=O)[C@H](CCCNC(=N)N)NC(=O)[C@H](Cc2c[nH]c3ccccc23)NC(=O)[C@@H](CC2CCCCC2)NC(=O)[C@@H]2CCCN2C1=O` [PMX53, Ac-Phe-[Orn-Pro-dCha-Trp-Arg]] gave a total exposure AUC(0-inf) of 3830 ng·h/mL, an AUC(0-t) of 3410 ng·h/mL and a clearance of 0.18 mL/min. Besides, the highest level in data set [1] (Cmax) (Cmax) was 11900 ng/mL. The Vd in data set [1] (Vss_obs) was 0.00328 L. The same molecule registered a Vd in data set [1] (Vz_obs) of 0.00826 L.

As a reminder, the MRT inf is a mean duration of stay, worked out from the concentration-time curve. As a reminder, the half-life is how long it takes for the measured level to halve. A lower half-life goes with fast loss. With `N=C(N)NCCC[C@@H]1NC(=O)[C@H](Cc2c[nH]c3ccccc23)NC(=O)[C@@H](CC2CCCCC2)NC(=O)[C@@H]2CCCN2C(=O)[C@@H](NC(=O)CCc2ccccc2)CCCNC1=O` [PMX205, hydrocinnamate-[Orn-Pro-dCha-Trp-Arg]] (Hydrocinnamoyl-[Orn]P[dCha]WR; lactam 1-C), the “stability in serum (percentage of concentration detected vs t = 0 min)” value in data set [2] came out at 91.4 ± 1.4%. Besides, the “stability in plasma (percentage of concentration detected vs t = 0 min)” value in data set [3] turned out to be 91.4 ± 3.1%. In data set [4] (mouse gastric homogenates), the “stability in gastric homogenates (unchanged form, % of t = 0 min)” value worked out at 6.7 ± 4.2%. Further, the “stability in gastric lavage (unchanged form, % of t = 0 min)” value in data set [4] (mouse gastric lavage fluid) was < 25% and 23.3 ± 1.7%. Also, the “stability in intestinal homogenates (unchanged form)” value in data set [5] (mouse intestinal homogenates) is “greater than 35%”. Further, the “stability in intestinal washing (unchanged form)” value in data set [5] (mouse intestinal washing) is listed as “more than 85%”. In addition, the entries for the “AUC 0-inf_obs” value in data set [6] (setting [7]) and in data set [6] (setting [12]) were 12.18 µg·min/g and 17.42 µg·min/g, respectively. The values for the Cl_obs in data set [6] (setting [7]) and in data set [6] (setting [12]) were 2.46 g/min and 1.722 g/min, respectively. Besides, the Vss_obs turned out to be 553.84 g in data set [6] (setting [7]) and 257.98 g in data set [6] (setting [12]). Besides, the Vz_obs in data set [6] (setting [7]) is reported as 572.84 g; in data set [6] (setting [12]) it was 265.65 g. The “AUC(0-t)” value in data set [6] (brain, t = 90 min, single i.v. 1 mg/kg, mice) is 4.18 µg·min/g; in data set [6] (setting [9]), 5800 ng·h/mL; in data set [6] (spinal cord, t = 90 min, single i.v. 1 mg/kg, mice), 7.95 µg·min/g. The Cmax in data set [6] (setting [8]) worked out at 108 ng/g; in data set [6] (setting [10]), 29000 ng/mL; in data set [6] (setting [11]), 213 ng/g. The MRT inf in data set [6] (setting [8]) was 3.75 h; in data set [6] (setting [10]), 0.15 h; in data set [6] (setting [11]), 2.49 h. For the same molecule, the half-life in data set [6] (male, C57BL/6 J, mouse, brain, iv, 1 mg/kg, t1/2, brain, single i.v. 1 mg/kg, mice) was 2.69 h; in data set [6] (male, C57BL/6 J, mouse, plasma, iv, 1 mg/kg, t1/2, plasma, single i.v. 1 mg/kg, mice), 0.17 h; in data set [6] (male, C57BL/6 J, mouse, spinal cord, iv, 1 mg/kg, t1/2, spinal cord, single i.v. 1 mg/kg, mice), 1.78 h. In addition, in data set [6] (setting [9]), the total exposure AUC(0-inf) was 5810 ng·h/mL. Further, the clearance in data set [6] (setting [9]) was 0.086 mL/min. In addition, the Vd in data set [6] (male, C57BL/6 J, mouse, plasma, iv, 1 mg/kg, Vss_obs, plasma, single i.v. 1 mg/kg, mice) is 0.00079 L; in data set [6] (male, C57BL/6 J, mouse, plasma, iv, 1 mg/kg, Vz_obs, single i.v. 1 mg/kg, mice), 0.00132 L.

(Values after PMC5970165, “Development and validation of a LC-MS/MS assay for pharmacokinetic studies of complement C5a receptor antagonists PMX53 and PMX205 in mice” (Scientific Reports, 2018).)
